This is an account of results in patent publication US8697877B2, “Oxyindole derivatives with motilin receptor agonistic activity” (RaQualia Pharma Inc., priority 2009, dated 2014).

Broadly, the EC50 is the concentration that produces a half-maximal response. Low values mean an effect from little substance, high ones a need for much substance.

The assay deals with T1, human motilin receptor (GPR38) (Homo sapiens, UniProt O43193).
T1 construct: expressed in transfected cells; host or cells: CHO-K1
T1 sequence (O43193 whole entry): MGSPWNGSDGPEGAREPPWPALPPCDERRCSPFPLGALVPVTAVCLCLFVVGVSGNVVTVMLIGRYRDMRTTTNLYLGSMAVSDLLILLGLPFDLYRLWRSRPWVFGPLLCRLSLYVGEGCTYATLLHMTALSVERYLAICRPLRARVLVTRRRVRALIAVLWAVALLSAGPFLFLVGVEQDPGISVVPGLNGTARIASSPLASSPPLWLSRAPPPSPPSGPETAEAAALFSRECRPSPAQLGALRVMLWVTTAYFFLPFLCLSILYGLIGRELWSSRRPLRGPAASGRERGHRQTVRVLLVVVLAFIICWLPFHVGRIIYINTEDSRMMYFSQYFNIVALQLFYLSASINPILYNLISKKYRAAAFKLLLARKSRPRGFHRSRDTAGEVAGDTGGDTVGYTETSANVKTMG
The assay is described as follows: GPR38 (Motilin Receptor) Functional Assay, NFAT-beta-lactamase reporter in CHO-K1 cells. The assay is classed as cell-based. An outline of the steps: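 Agonist EC50 came from sigmoidal curves of beta-lactamase reporter signal (CCF4-AM, 2 h room temperature; ex 400 nm, em 465/540 nm). Stable CHO-K1 line with human motilin receptor and NFAT-beta-lactamase reporter, seeded 8000 cells/well, exposed to compound 4.5 h at 37° C.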
For the compound `CC1(C)C(=O)N(C2CCN(C(=O)[C@H](CCc3ccccc3)NC(=O)CC3(N)CCCC3)CC2)c2ccccc21` [Example 12, (S)-2-(1-aminocyclopentyl)-N-(1-(4-(3,3-dimethyl-2-oxoindolin-1-yl)piperidin-1-yl)-1-oxo-4-phenylbutan-2-yl)acetamide], the EC50 was no more than 10 nM.
The compound `CN[C@@H]1CC[C@H](C(=O)N[C@@H](Cc2cccc(F)c2)C(=O)N2CCC(N3C(=O)C(C)(C)c4ccccc43)CC2)C1` [Example 28, (1S,3R)-N-((S)-1-(4-(3,3-dimethyl-2-oxoindolin-1-yl)piperidin-1-yl)-3-(3-fluorophenyl)-1-oxopropan-2-yl)-3-(methylamino)cyclopentane-carboxamide] had an EC50 of no more than 10 nM.
As for `COCCN(C)CCC(=O)N[C@@H](CCc1ccccc1)C(=O)N1CCC(N2C(=O)C(C)(C)c3ccccc32)CC1` [Example 15, (S)-N-(1-(4-(3,3-dimethyl-2-oxoindolin-1-yl)piperidin-1-yl)-1-oxo-4-phenylbutan-2-yl)-3-((2-methoxyethyl)(methyl)amino) propanamide], the figure is no more than 10 nM; as for `C[C@@H]1CN(C(=O)N[C@@H](CCc2ccccc2)C(=O)N2CCC(N3C(=O)C(C)(C)c4ccccc43)CC2)CCN1` [Example 54, (R)-N-((S)-1-(4-(3,3-dimethyl-2-oxoindolin-1-yl)piperidin-1-yl)-1-oxo-4-phenylbutan-2-yl)-3-methyl-piperazine-1-carboxamide], no more than 10 nM; as for `CN[C@@H]1CC[C@H](C(=O)N[C@@H](CC(C)C)C(=O)N2CCC(N3C(=O)C(C)(C)c4ccccc43)CC2)C1` [Example 33, (1S,3R)-N-((S)-1-(4-(3,3-dimethyl-2-oxoindolin-1-yl)piperidin-1-yl)-4-methyl-1-oxopentan-2-yl)-3-(methylamino) cyclopentanecarboxamide], no more than 10 nM.
Turning to `CN[C@@H]1CC[C@H](C(=O)N[C@@H](Cc2cccc3ccccc23)C(=O)N2CCC(N3C(=O)C(C)(C)c4ccccc43)CC2)C1` [Example 24, (1S,3R)-N-((S)-1-(4-(3,3-dimethyl-2-oxoindolin-1-yl)piperidin-1-yl)-3-(naphthalen-1-yl)-1-oxopropan-2-yl)-3-(methylamino)cyclopentane-carboxamide], the EC50 was no more than 10 nM.
`CC1(C)C(=O)N(C2CCN(C(=O)[C@H](Cc3ccccc3Cl)NC(=O)C3CCNCC3)CC2)c2ccccc21` [Example 79, (S)-N-(3-(2-chlorophenyl)-1-(4-(3,3-dimethyl-2-oxo-indolin-1-yl)piperidin-1-yl)-1-oxopropan-2-yl) piperidine-4-carboxamide] registered an EC50 of no more than 10 nM.
